# ChEMBL document CHEMBL1133800, “Microwave assisted synthesis of N-arylphthalamic acids with hyperlipidemic activity” (2001)
# Organism: Mus musculus
# Assay: Animal body weight was evaluated in Swiss white mice before treatment with the compound
# Assay type: functional
# Settings: not given
row,Structure (SMILES),Body weight [g]
1,O=C(O)c1ccccc1C(=O)Nc1cccc(F)c1,26
2,O=C(O)c1ccccc1C(=O)Nc1ccc(Cl)cc1,25
3,O=C(O)c1ccccc1C(=O)Nc1ccccc1,28
4,O=C(O)c1ccccc1C(=O)Nc1cccc(Cl)c1,24
5,O=C(O)c1ccccc1C(=O)Nn1cnnc1,35
6,O=C(O)c1ccccc1C(=O)Nc1nc[nH]n1,35
7,O=C(O)c1ccccc1C(=O)Nc1ccccc1Cl,26
8,O=C(O)c1ccccc1C(=O)Nc1ccccc1F,26
9,O=C(O)c1ccccc1C(=O)Nc1ccc(F)cc1,20

# Tested on: Mus musculus
# Assay: Plasma cholesterol level was evaluated in Swiss white mice treated with 20 mg/kg/day of ip administration for 14 days
# Assay type: functional
# Settings: route intraperitoneal
row,Structure (SMILES),Cholesterol [mM]
1,O=C(O)c1ccccc1C(=O)Nc1cccc(F)c1,< 3.28
2,O=C(O)c1ccccc1C(=O)Nc1ccc(Cl)cc1,< 2.51
3,O=C(O)c1ccccc1C(=O)Nc1ccccc1,< 3.06
4,O=C(O)c1ccccc1C(=O)Nc1cccc(Cl)c1,< 2.48
5,O=C(O)c1ccccc1C(=O)Nn1cnnc1,2.95
6,O=C(O)c1ccccc1C(=O)Nc1nc[nH]n1,2.78
7,O=C(O)c1ccccc1C(=O)Nc1ccccc1Cl,< 2.43
8,O=C(O)c1ccccc1C(=O)Nc1ccccc1F,< 3.4
9,O=C(O)c1ccccc1C(=O)Nc1ccc(F)cc1,< 3.17

# Tested on: Mus musculus
# Assay: Animal body weight was evaluated in Swiss white mice treated with 20 mg/kg/day of ip administration for 14 days
# Assay type: functional
# Settings: route intraperitoneal
row,Structure (SMILES),Body weight [g]
1,O=C(O)c1ccccc1C(=O)Nc1cccc(F)c1,<29
2,O=C(O)c1ccccc1C(=O)Nc1ccc(Cl)cc1,28
3,O=C(O)c1ccccc1C(=O)Nc1ccccc1,29
4,O=C(O)c1ccccc1C(=O)Nc1cccc(Cl)c1,<28
5,O=C(O)c1ccccc1C(=O)Nn1cnnc1,39
6,O=C(O)c1ccccc1C(=O)Nc1nc[nH]n1,38
7,O=C(O)c1ccccc1C(=O)Nc1ccccc1Cl,<29
8,O=C(O)c1ccccc1C(=O)Nc1ccccc1F,<30
9,O=C(O)c1ccccc1C(=O)Nc1ccc(F)cc1,<25

# Organism: Mus musculus
# Assay: Plasma triglyceride level was evaluated in Swiss white mice before treatment with the compound
# Assay type: functional
# Settings: not given
row,Structure (SMILES),Triglycerides [mM]
1,O=C(O)c1ccccc1C(=O)Nc1cccc(F)c1,1.01
2,O=C(O)c1ccccc1C(=O)Nc1ccc(Cl)cc1,0.86
3,O=C(O)c1ccccc1C(=O)Nc1ccccc1,1.07
4,O=C(O)c1ccccc1C(=O)Nc1cccc(Cl)c1,1.04
5,O=C(O)c1ccccc1C(=O)Nn1cnnc1,1.12
6,O=C(O)c1ccccc1C(=O)Nc1nc[nH]n1,1.14
7,O=C(O)c1ccccc1C(=O)Nc1ccccc1Cl,1.06
8,O=C(O)c1ccccc1C(=O)Nc1ccccc1F,0.94
9,O=C(O)c1ccccc1C(=O)Nc1ccc(F)cc1,1.26

# Organism: Mus musculus
# Assay: Plasma cholesterol level was evaluated in Swiss white mice before treatment with the compound
# Assay type: functional
# Settings: not given
row,Structure (SMILES),Cholesterol [mM]
1,O=C(O)c1ccccc1C(=O)Nc1cccc(F)c1,3.02
2,O=C(O)c1ccccc1C(=O)Nc1ccc(Cl)cc1,2.3
3,O=C(O)c1ccccc1C(=O)Nc1ccccc1,2.71
4,O=C(O)c1ccccc1C(=O)Nc1cccc(Cl)c1,2.17
5,O=C(O)c1ccccc1C(=O)Nn1cnnc1,2.46
6,O=C(O)c1ccccc1C(=O)Nc1nc[nH]n1,2.45
7,O=C(O)c1ccccc1C(=O)Nc1ccccc1Cl,2.11
8,O=C(O)c1ccccc1C(=O)Nc1ccccc1F,3.06
9,O=C(O)c1ccccc1C(=O)Nc1ccc(F)cc1,2.66

# Tested on: Mus musculus
# Assay: Plasma triglyceride level was evaluated in Swiss white mice treated with 20 mg/kg/day of ip administration for 14 days
# Assay type: functional
# Settings: route intraperitoneal
row,Structure (SMILES),Triglycerides [mM]
1,O=C(O)c1ccccc1C(=O)Nc1cccc(F)c1,< 1.35
2,O=C(O)c1ccccc1C(=O)Nc1ccc(Cl)cc1,< 1.06
3,O=C(O)c1ccccc1C(=O)Nc1ccccc1,< 1.3
4,O=C(O)c1ccccc1C(=O)Nc1cccc(Cl)c1,< 1.28
5,O=C(O)c1ccccc1C(=O)Nn1cnnc1,< 1.49
6,O=C(O)c1ccccc1C(=O)Nc1nc[nH]n1,< 1.58
7,O=C(O)c1ccccc1C(=O)Nc1ccccc1Cl,< 1.32
8,O=C(O)c1ccccc1C(=O)Nc1ccccc1F,< 1.23
9,O=C(O)c1ccccc1C(=O)Nc1ccc(F)cc1,< 1.48
